This assay has as its system P388 leukemia ip, CD2F1 mice, survival T/C. The assay can be described thus: NCI In Vivo Anticancer Drug Screen. Data for tumor model P388 Leukemia (intraperitoneal) in CD2F1 (CDF1) mice. As to conditions: endpoint: median survival time, higher = longer survival. The gist of the method: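 Mice carrying the transplanted tumor received test compound or vehicle. Survival was recorded in each group, and the value is the treated-group measurement divided by that of the vehicle-treated control group.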

Setting [1] is: dose: 50.0 mg/kg/injection, schedule: Q01DX005 (ip), vehicle: saline.
Setting [2] is: dose: 100.0 mg/kg/injection, schedule: Q01DX005 (ip), vehicle: saline.
[3] abbreviates: dose: 200.0 mg/kg/injection, schedule: Q01DX005 (ip), vehicle: saline.
Where [4] appears, read: dose: 50.0 mg/kg/injection, schedule: Q01DX009 (ip), vehicle: saline.
Setting [5] is: dose: 100.0 mg/kg/injection, schedule: Q01DX009 (ip), vehicle: saline.
The mark [6] stands for this setting: dose: 200.0 mg/kg/injection, schedule: Q01DX009 (ip), vehicle: saline.
[7] abbreviates: dose: 50.0 mg/kg/injection, schedule: Q01DX009 (ip), vehicle: Klucel (hydroxypropylcellulose) (HPC).
Where [8] appears, read: dose: 100.0 mg/kg/injection, schedule: Q01DX009 (ip), vehicle: Klucel (hydroxypropylcellulose) (HPC).
The mark [9] stands for this setting: dose: 200.0 mg/kg/injection, schedule: Q01DX009 (ip), vehicle: Klucel (hydroxypropylcellulose) (HPC).
Setting [10] is: dose: 100.0 mg/kg/injection, schedule: Q01DX009 (ip), vehicle: saline with Tween-80.
[11] abbreviates: dose: 200.0 mg/kg/injection, schedule: Q01DX009 (ip), vehicle: saline with Tween-80.
Setting [12] is: dose: 50.0 mg/kg/injection, schedule: Q01DX005 (ip), vehicle: saline with Tween-80.
The mark [13] stands for this setting: dose: 100.0 mg/kg/injection, schedule: Q01DX005 (ip), vehicle: saline with Tween-80.
The mark [14] stands for this setting: dose: 50.0 mg/kg/injection, schedule: Q01DX009 (ip), vehicle: saline with Tween-80.
The mark [15] stands for this setting: dose: 60.0 mg/kg/injection, schedule: Q01DX005 (ip), vehicle: Klucel (hydroxypropylcellulose) (HPC).
[16] abbreviates: dose: 120.0 mg/kg/injection, schedule: Q01DX005 (ip), vehicle: Klucel (hydroxypropylcellulose) (HPC).
The mark [17] stands for this setting: dose: 240.0 mg/kg/injection, schedule: Q01DX005 (ip), vehicle: Klucel (hydroxypropylcellulose) (HPC).
[18] abbreviates: dose: 100.0 mg/kg/injection, schedule: Q04DX002 (ip), vehicle: saline with Tween-80.
Setting [19] is: dose: 200.0 mg/kg/injection, schedule: Q04DX002 (ip), vehicle: saline with Tween-80.
Where [20] appears, read: dose: 400.0 mg/kg/injection, schedule: Q04DX002 (ip), vehicle: saline with Tween-80.
Setting [21] is: dose: 60.0 mg/kg/injection, schedule: Q01DX005 (ip), vehicle: saline with Tween-80.
Setting [22] is: dose: 120.0 mg/kg/injection, schedule: Q01DX005 (ip), vehicle: saline with Tween-80.
[23] abbreviates: dose: 240.0 mg/kg/injection, schedule: Q01DX005 (ip), vehicle: saline with Tween-80.

Several values for one entry are separate records, joined by “and”; a condition that tells them apart may be missing. Equal values may be shown once. Inconclusive results and toxic doses are left out.

As for `CN(C)CCC1CC(O)CCC1(C)O` (stereo not drawn), the T/C under setting [1] was 98 % of control, the T/C under setting [2] is 100 % of control and the T/C under setting [3] was 102 % of control.

For `C=C1CCC2C(OC(=O)C2(COC(C)=O)OC(C)=O)C2C(=C)C(OC(C)=O)CC12` (stereo not drawn), the T/C by setting is: (dose: 11.25 mg/kg/injection, schedule: Q01DX005 (ip), vehicle: Klucel (hydroxypropylcellulose) (HPC)) 100 % of control; (dose: 22.5 mg/kg/injection, schedule: Q01DX005 (ip), vehicle: Klucel (hydroxypropylcellulose) (HPC)) 97 % of control; (dose: 45.0 mg/kg/injection, schedule: Q01DX005 (ip), vehicle: Klucel (hydroxypropylcellulose) (HPC)) 103 % of control; (dose: 90.0 mg/kg/injection, schedule: Q01DX005 (ip), vehicle: Klucel (hydroxypropylcellulose) (HPC)) 104 % of control; (dose: 180.0 mg/kg/injection, schedule: Q01DX005 (ip), vehicle: Klucel (hydroxypropylcellulose) (HPC)) 99 % of control.

For the compound `C=C(C)CC1C(=O)OC(=O)C1(CC(=C)C)CC(=C)C` (stereo not drawn), the T/C runs as follows: under setting [4], 100 % of control; under setting [5], 99 % of control; under setting [6], 93 % of control.

With `O=C1/C(=C/c2ccccc2[N+](=O)[O-])CCCc2ccccc21`, the T/C reads like this: under setting [7], 94 % of control; under setting [8], 103 % of control; under setting [9], 105 % of control.

Regarding `CCCCC#CC(=O)O`, the T/C is 103 % of control under setting [4] and 94 % of control under setting [5].

Consider `NS(=O)(=O)c1ccc(N=Cc2ccccc2)cc1`, for which the T/C by setting is: under setting [10], 103 % of control; under setting [11], 100 % of control; (dose: 400.0 mg/kg/injection, schedule: Q01DX009 (ip), vehicle: saline with Tween-80) 98 % of control.

As for `COc1cc(Br)c2nsnc2c1`, the T/C runs as follows: under setting [12], 91 % of control; under setting [13], 91 % of control.

Take `COc1cccc2c1C(=O)c1c(O)c3c(c(O)c1C2=O)C[C@@](O)(C(O)CO)C[C@@H]3OC1CC(NCc2ccccc2)C(O)C(C)O1` (stereo partly drawn): the T/C is, setting by setting: (dose: 0.39 mg/kg/injection, schedule: Q01DX009 (ip), vehicle: water) 158 % of control and 167 % of control; (dose: 0.78 mg/kg/injection, schedule: Q01DX009 (ip), vehicle: water) 157 % of control and 162 % of control and 169 % of control; (dose: 1.18 mg/kg/injection, schedule: Q04DX003 (ip), vehicle: water) 106 % of control; (dose: 1.56 mg/kg/injection, schedule: Q01DX009 (ip), vehicle: water) 157 % of control and 190 % of control and 196 % of control; (dose: 2.35 mg/kg/injection, schedule: Q04DX003 (ip), vehicle: water) 106 % of control; (dose: 3.13 mg/kg/injection, schedule: Q01DX009 (ip), vehicle: water) 163 % of control and 176 % of control and 192 % of control. The T/C (dose: 9.4 mg/kg/injection, schedule: Q04DX003 (ip), vehicle: water) was 116 % of control.

`COC(=O)C(N)Cc1cn(Cc2ccccc2)cn1` (stereo not drawn): the T/C reads like this: under setting [14], 95 % of control; under setting [10], 96 % of control; under setting [11], 96 % of control.

Consider `C[P+]1(C)CCCCC1`, for which the T/C by setting is: (dose: 100.0 mg/kg/injection, schedule: Q01DX001 (ip), vehicle: saline) 98 % of control; (dose: 200.0 mg/kg/injection, schedule: Q01DX001 (ip), vehicle: saline) 91 % of control.

For `C/C(=N\Nc1ccccc1)C1CC2C=C(C#N)C1N(Cc1ccccc1)C2` (stereo not drawn), the T/C is, setting by setting: (dose: 8.75 mg/kg/injection, schedule: Q01DX005 (ip), vehicle: Klucel (hydroxypropylcellulose) (HPC)) 94 % of control; (dose: 17.5 mg/kg/injection, schedule: Q01DX005 (ip), vehicle: Klucel (hydroxypropylcellulose) (HPC)) 96 % of control; (dose: 35.0 mg/kg/injection, schedule: Q01DX005 (ip), vehicle: Klucel (hydroxypropylcellulose) (HPC)) 94 % of control.

For `CN(C)C1CCc2ccccc2C1OC(=O)c1ccccc1` (stereo not drawn), the T/C runs as follows: under setting [14], 101 % of control; under setting [10], 107 % of control.

On to `O=C1OCCOCCOCCOCCOC(=O)c2cccc1n2`, for which the T/C was 105 % of control (dose: 100.0 mg/kg/injection, schedule: Q04DX003 (ip), vehicle: Klucel (hydroxypropylcellulose) (HPC)); 104 % of control (dose: 200.0 mg/kg/injection, schedule: Q04DX003 (ip), vehicle: Klucel (hydroxypropylcellulose) (HPC)); 102 % of control (dose: 400.0 mg/kg/injection, schedule: Q04DX003 (ip), vehicle: Klucel (hydroxypropylcellulose) (HPC)).

Take `CCCCC/C(C=O)=C\c1ccccc1`: the T/C is 118 % of control (dose: 100.0 mg/kg/injection, schedule: Q04DX003 (ip), vehicle: saline with Tween-80); 100 % of control (dose: 200.0 mg/kg/injection, schedule: Q04DX003 (ip), vehicle: saline with Tween-80); 109 % of control (dose: 400.0 mg/kg/injection, schedule: Q04DX003 (ip), vehicle: saline with Tween-80).

For `Clc1cccc2c(SCCCCCCCSc3c4ccccc4nc4c(Cl)cccc34)c3ccccc3nc12`, the T/C under setting [15] is 93 % of control, the T/C under setting [16] was 91 % of control and the T/C under setting [17] is 90 % of control.

As to `O=S(=O)(CS(=O)(=O)Oc1ccccc1)Oc1ccccc1`, the T/C under setting [18] was 104 % of control, the T/C under setting [19] was 96 % of control and the T/C under setting [20] was 98 % of control.

Consider `COc1ccccc1-n1s/c(=N\OC(=O)c2sc3ccccc3c2Cl)sc1=S`, for which the T/C by setting is: under setting [4], 93 % of control; under setting [5], 94 % of control; under setting [6], 94 % of control.

For `CCCN=C1NS(=O)(=O)c2ccccc21`, the T/C is 110 % of control under setting [12]; 98 % of control under setting [13]; 93 % of control (dose: 200.0 mg/kg/injection, schedule: Q01DX005 (ip), vehicle: saline with Tween-80).

As to `CCCCCCC(C)N=[N+]([O-])CC(C)OC(C)=O` (stereo not drawn), the T/C was 121 % of control (dose: 10.0 mg/kg/injection, schedule: Q01DX009 (ip), vehicle: saline with Tween-80); 105 % of control (dose: 20.0 mg/kg/injection, schedule: Q01DX009 (ip), vehicle: saline with Tween-80); 121 % of control (dose: 40.0 mg/kg/injection, schedule: Q01DX009 (ip), vehicle: saline with Tween-80).

`O=CN(CCO)CCO`: the T/C under setting [1] is 107 % of control, the T/C under setting [2] was 94 % of control and the T/C under setting [3] is 114 % of control.

Turning to `O=C1CC2CCC1(CS(=O)(=O)OCCCCOS(=O)(=O)CC13CCC(CC1=O)C3)C2`, the T/C runs as follows: under setting [21], 103 % of control; under setting [22], 103 % of control; under setting [23], 93 % of control.

Turning to `O=C(O)c1cnc2ccccn12`, the T/C (dose: 50.0 mg/kg/injection, schedule: Q01DX009 (ip), vehicle: acetone) was 112 % of control; the T/C under setting [4] was 95 % of control; the T/C (dose: 100.0 mg/kg/injection, schedule: Q01DX009 (ip), vehicle: acetone) was 117 % of control; the T/C under setting [5] was 96 % of control; the T/C (dose: 200.0 mg/kg/injection, schedule: Q01DX009 (ip), vehicle: acetone) was 102 % of control; the T/C under setting [6] is 107 % of control.

For `Fc1cccc(-c2nn[nH]n2)c1`, the T/C is 102 % of control under setting [18], 107 % of control under setting [19] and 116 % of control under setting [20].

For the compound `COc1ccc(OC)c(NC(=O)OCc2ccc3c(c2)OCO3)c1`, the T/C under setting [21] was 98 % of control, the T/C under setting [22] is 95 % of control and the T/C under setting [23] was 93 % of control.

As to `O=C1C2=C(/C=C/c3ccccc3)OCCC2=NN1c1ccccc1`, the T/C by setting is: under setting [15], 94 % of control; under setting [16], 98 % of control; under setting [17], 109 % of control.

Consider `O=C1CCC(C(Sc2ccccc2)(Sc2ccccc2)Sc2ccccc2)C1` (stereo not drawn), for which the T/C reads like this: under setting [7], 97 % of control; under setting [8], 90 % of control; under setting [9], 89 % of control.

Source of the values: PubChem BioAssay AID330 (DTP/NCI, 2004).
